Assay results as given in US20200345725A1, “Methods and Compositions for Treating Cancer” (Omeros Corporation, priority 2019, published 2020).
Where “and” joins values, the source holds several entries; their conditions need not be identical. Identical values can stand only once. Marks after values point to notes of the source that are not given here.

B1: ADA: adenosine deaminase, an enzyme that catabolizes adenosine into inosine (protein, UniProt P00813 2-363, looked up)
Adenosine deaminase: AQTPAFDKPKVELHVHLDGSIKPETILYYGRRRGIALPANTAEGLLNVIGMDKPLTLPDFLAKFDYYMPAIAGCREAIKRIAYEFVEMKAKEGVVYVEVRYSPHLLANSKVEPIPWNQAEGDLTPDEVVALVGQGLQEGERDFGVKARSILCCMRHQPNWSPKVVELCKKYQQQTVVAIDLAGDETIPGSSLLPGHVQAYQEAVKSGIHRTVHAGEVGSAEVVKEAVDILKTERLGHGYHTLEDQALYNRLRQENMHFEICPWSSYLTGAWKPDTEHAVIRLKNDQANYSLNTDDPLIFKSTLDTDYQMTKRDMGFTEEEFKRLNINAAKSSFLPEDEKRELLDLLYKAYGMPPSASAGQNL

Assays:
[1] = target: GPR174 (Homo sapiens, UniProt Q9BXC1); test: CRE-Luc reporter Gs signaling assay with GPR174; format: cell-based; design: host or cells: HEK293 or CHO cell lines (ATCC); conditions: pCRE-Luc reporter; for EC50: multiple values = separate experiments
[2] = system: human PBMCs; test: Th1 cytokines in supernatants of stimulated human PBMC, GPR174 inhibitor with adenosine pathway inhibitors (Examples 15, 18-22); format: cell-based; conditions: for IFN-γ, ratio relative to vehicle control (Veh column) / IL-2, ratio relative to vehicle control (Veh column) / TNF, ratio relative to vehicle control (Veh column): Cmpd 10 1, ZM 0.1, PBF 0.1, SCH 0.2 μM, ADA 0.75 μg/mL; for IFN-γ, ratio relative to vehicle control (MRS) / IL-2, ratio relative to vehicle control (MRS column) / TNF, ratio relative to vehicle control (MRS column): MRS-1754 1 μM added to the agent(s) of the label, label MRS = MRS alone
Procedure: Human PBMCs, obtained from a human volunteer donor, were dispensed at density of 1×10^6 cells/well in a 96-well flat-bottom plate and were stimulated in triplicate with 1 μg/mL anti-CD3 antibody (UCHT1) and 0.1 μg/mL anti-CD28 antibody (CD28.2) in the presence of:
Supernatants from these cells were collected at 24 hours post-stimulation and the levels of IFN-γ were determined by ELISA assay. Statistical analysis was carried out using one-way ANOVA with Tukey's post-hoc multiple comparison's correction.
Human PBMCs, obtained from a human volunteer donor (donor 1), were dispensed in X-vivo15 media (Lonza) supplemented with Glutamax, penicillin and streptomycin, at density of 1×10^6 cells/well in a 96-well flat-bottom plate and were stimulated with 1 μg/mL anti-CD3 antibody (UCHT1) and 0.1 μg/mL anti-CD28 antibody (CD28.2) in the presence of:
Supernatants from these cells were collected at 24 hours post-stimulation and the levels of IFN-γ, IL-2 and TNF were determined by ELISA assays.
Human PBMCs, obtained from two individual human volunteer donors (donor 2 and donor 3), were dispensed at density of 1×10^6 cells/well in a 96-well flat-bottom plate and were stimulated with 1 μg/mL anti-CD3 antibody (UCHT1) and 0.1 μg/mL anti-CD28 antibody (CD28.2) in the presence of:
Human PBMCs, obtained from twelve individual human volunteer donors were dispensed at density of 1×10^6 cells/well in a 96-well flat-bottom plate and were stimulated in triplicate with 1 μg/mL anti-CD3 antibody (UCHT1) and 0.1 μg/mL anti-CD28 antibody (CD28.2) in the presence of:
A total of 44 experiments using PBMC from 12 healthy donors were tested (9 donors for GM-CSF), with each donor tested in 1 to 8 separate experiments, depending on the donor (1 to 4 experiments each for GM-CSF). […] Cytokines were detected in supernatants with the Legendplex (Biolegend) or the MSB (MesoScale) platforms. […] One-way ANOVA with Tukey's post-hoc multiple comparisons correction was performed to identify significant differences (FC, mean fold change; ****, p<0.0001, ***, p<0.001; **, p<0.01; *, p<0.05, ns, not significant).
Human PBMC (1×10^6 cells/well in a 96-well flat-bottom plate) obtained from donor 3 and donor 6 were stimulated with 1 μg/mL anti-CD3 antibody (UCHT1) and 0.1 μg/mL anti-CD28 antibody (CD28.2) in the presence of:
Supernatants from these cells were collected at 24 hours post-stimulation and the levels of IFN-γ, IL-2, and TNF were determined with the MSD platform (MesoScale Discovery).
Human PBMC (1×10^6 cells/well in a 96-well flat-bottom plate) obtained from donor 7 were stimulated with 1 μg/mL […] (UCHT1) and 0.1 μg/mL anti-CD28 antibody (CD28.2) in the presence of:
Supernatants from these cells were collected at 24 hours post-stimulation and the levels of IFN-γ, IL-2, TNF and GM-CSF were determined with the MSD platform (MesoScale Discovery).
Supernatants from these cells were collected at 24 hours post-stimulation and the levels of IFN-γ, IL-2 and TNF were determined with the MSD platform (MesoScale Discovery).

Sequence of GPR174 (Q9BXC1 whole entry): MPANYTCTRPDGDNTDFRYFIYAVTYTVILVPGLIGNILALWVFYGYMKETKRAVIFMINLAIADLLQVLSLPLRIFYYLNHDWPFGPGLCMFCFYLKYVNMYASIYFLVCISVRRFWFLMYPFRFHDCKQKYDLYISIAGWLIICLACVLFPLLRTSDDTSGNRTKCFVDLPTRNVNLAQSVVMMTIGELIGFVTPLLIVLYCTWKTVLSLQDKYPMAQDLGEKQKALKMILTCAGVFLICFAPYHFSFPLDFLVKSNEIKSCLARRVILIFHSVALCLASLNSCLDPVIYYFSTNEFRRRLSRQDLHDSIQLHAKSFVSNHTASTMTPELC

Row | Molecule | Fold decrease in Gs signaling activity [1] | EC50 [1] | other results
1 | CCC(=O)N1CCN(c2cc(N3CCC(C)CC3)c(F)cc2[N+](=O)[O-])CC1 [compound 8] | 3.3 fold | 700 nM and 400 nM | –
2 | CC1CCN(c2cc(N3CCN(C(=O)c4cccs4)CC3)c([N+](=O)[O-])cc2F)CC1 [compound 12] | 3.9 fold | 400 nM and 700 nM | –
3 | Cc1ccc(S(=O)(=O)N2CCN(c3cc(N4CCC(C)CC4)c(F)cc3[N+](=O)[O-])CC2)cc1 [compound 14] | 3 fold | 1100 nM | –
4 | Cc1ccc(S(=O)(=O)N2CCN(c3cc(N4CCCCC4)c(F)cc3[N+](=O)[O-])CC2)cc1 [compound 15] | 2.6 fold | 1700 nM | –
5 | CC(C)C(=O)N1CCN(c2cc(N3CCCCC3C)c(F)cc2[N+](=O)[O-])CC1 (stereo not drawn) [compound 16] | 2.1 fold | 800 nM | –
6 | CC1CCCCN1c1cc(N2CCN(C(=O)C(C)(C)C)CC2)c([N+](=O)[O-])cc1F (stereo not drawn) [compound 17] | 2.0 fold | 3000 nM | –
7 | CCOC(=O)N1CCN(c2cc(N3CCCCC3C)c(F)cc2[N+](=O)[O-])CC1 (stereo not drawn) [compound 18] | 1.9 fold | 1000 nM | –
8 | O=C1CCCC2=C1C(c1cccc(O)c1)C1=C(N2)c2ccccc2C1=O (stereo not drawn) [compound 24] | 2.8 fold | 4400 nM | –
9 | O=C1CCCC2=C1C(c1ccccc1)C1=C(N2)c2ccccc2C1=O (stereo not drawn) [compound 25] | 4.2 fold | 4600 nM | –
10 | COc1cc(C2C3=C(CCCC3=O)NC3=C2C(=O)c2ccccc23)ccc1O (stereo not drawn) [compound 26] | 1.7 fold | 3600 nM | –
11 | CCc1ccc(C2C3=C(CCCC3=O)NC3=C2C(=O)c2ccccc23)cc1 (stereo not drawn) [compound 27] | 6.2 fold | 800 nM and 500 nM | –
12 | COc1cccc(C2C3=C(CCCC3=O)NC3=C2C(=O)c2ccccc23)c1 (stereo not drawn) [compound 28] | 1.9 fold | 3600 nM | –
13 | CC(C)c1ccc(C2C3=C(CCCC3=O)NC3=C2C(=O)c2ccccc23)cc1 (stereo not drawn) [compound 29] | 5.3 fold | 1200 nM | –
14 | CCOc1ccc(C2C3=C(CCCC3=O)NC3=C2C(=O)c2ccccc23)cc1OCC (stereo not drawn) [compound 30] | 2.2 fold | 3800 nM | –
15 | O=C1CCCC2=C1C(c1ccc(-c3ccccc3)cc1)C1=C(N2)c2ccccc2C1=O (stereo not drawn) [compound 32] | 3.9 fold | 2500 nM | –
16 | Cc1nnc(-c2ccc(C3C4=C(CCCC4=O)NC4=C3C(=O)c3ccccc34)cc2)o1 (stereo not drawn) [compound 34] | 8.4 fold | 2800 nM | –
17 | O=C1CCCC2=C1C(c1ccc(F)cc1)C1=C(N2)c2ccccc2C1=O (stereo not drawn) [compound 35] | 2.8 fold | 4300 nM | –

Row | Molecule | Fold decrease in Gs signaling activity [1] | EC50 [1] | other results
18 | O=C1CCCC2=C1C(c1cccnc1)C1=C(N2)c2ccccc2C1=O (stereo not drawn) [compound 37] | 2.8 fold | 5400 nM | –
19 | O=C1CCCC2=C1C(c1ccc([N+](=O)[O-])cc1)C1=C(N2)c2ccccc2C1=O (stereo not drawn) [compound 38] | 8.6 fold | 2700 nM | –
20 | O=C1CCCC2=C1C(c1ccc(Cl)cc1)C1=C(N2)c2ccccc2C1=O (stereo not drawn) [compound 39] | 7.8 fold | 3000 nM | –
21 | CS(=O)(=O)c1ccc(C2C3=C(CCCC3=O)NC3=C2C(=O)c2ccccc23)cc1 (stereo not drawn) [compound 40] | 8.8 fold | 3300 nM | –
22 | CCCOc1ccc(C2C3=C(CCCC3=O)NC3=C2C(=O)c2ccccc23)cc1 (stereo not drawn) [compound 41] | 13.7 fold | 1000 nM | –
23 | O=C1CCCC2=C1C(c1ccc(N3CCCC3=O)cc1)C1=C(N2)c2ccccc2C1=O (stereo not drawn) [compound 43] | 5.1 fold | 5200 nM | –
24 | CC(C)(C)Oc1ccc(C2C3=C(CCCC3=O)NC3=C2C(=O)c2ccccc23)cc1 (stereo not drawn) [compound 44] | 4.7 fold | 1300 nM | –
25 | O=C1CCCC2=C1C(c1ccc(OC3CCCC3)cc1)C1=C(N2)c2ccccc2C1=O (stereo not drawn) [compound 45] | 7.6 fold | 1000 nM | –
26 | O=C1CCCC2=C1C(c1ccc(OC(F)F)cc1)C1=C(N2)c2ccccc2C1=O (stereo not drawn) [compound 46] | 8.1 fold | 1200 nM | –
27 | O=C1CCCC2=C1C(c1ccc(Oc3ccccc3)cc1)C1=C(N2)c2ccccc2C1=O (stereo not drawn) [compound 47] | 7.1 fold | 1000 nM | –
28 | O=C1CCCC2=C1C(c1ccc(OC(F)(F)F)cc1)C1=C(N2)c2ccccc2C1=O (stereo not drawn) [compound 48] | 5 fold | 1200 nM | –
29 | CC(C)Oc1ccc(C2C3=C(CCCC3=O)NC3=C2C(=O)c2ccccc23)cc1 (stereo not drawn) [compound 49] | 14.3 fold | 600 nM | –
30 | C=CCOc1ccc(C2C3=C(CCCC3=O)NC3=C2C(=O)c2ccccc23)cc1 (stereo not drawn) [compound 50] | 10.1 fold | 1200 nM | –
31 | CCOc1cccc(C2C3=C(CCCC3=O)NC3=C2C(=O)c2ccccc23)c1 (stereo not drawn) [compound 51] | 1.7 fold | 1600 nM | –
32 | CCCCCCOc1ccc(C2C3=C(CCCC3=O)NC3=C2C(=O)c2ccccc23)cc1 (stereo not drawn) [compound 52] | 3.1 fold | 500 nM | –
33 | O=[N+]([O-])c1cc(F)c(N2CCCCCC2)cc1N1CCN(S(=O)(=O)c2ccccc2)CC1 [compound 53] | 3.4 fold | 1800 nM | –
34 | B1 | – | – | IFN-γ, MRS/Veh: ratio in the presence vs. the absence of MRS-1754 ([2]; donor 3): 0.7*; IL-2, MRS/Veh: ratio in the presence vs. the absence of MRS-1754 ([2]; donor 3): 0.9; TNF, MRS/Veh: ratio in the presence vs. the absence of MRS-1754 ([2]; donor 3): 0.9; IFN-γ, ratio relative to vehicle control (Veh column) ([2]; donor 3, no MRS): 1.7* fold; IL-2, ratio relative to vehicle control (Veh column) ([2]; donor 3, no MRS): 2.2* fold; TNF, ratio relative to vehicle control (Veh column) ([2]; donor 3, no MRS): 2.2* fold; IFN-γ, ratio relative to vehicle control (MRS) ([2]; donor 3): 1.1 fold; IL-2, ratio relative to vehicle control (MRS column) ([2]; donor 3): 1.9* fold; TNF, ratio relative to vehicle control (MRS column) ([2]; donor 3): 1.9* fold; IFN-γ, MRS/Veh: ratio in the presence vs. the absence of MRS-1754 ([2]; donor 6): 1.3; IL-2, MRS/Veh: ratio in the presence vs. the absence of MRS-1754 ([2]; donor 6): 1.0; TNF, MRS/Veh: ratio in the presence vs. the absence of MRS-1754 ([2]; donor 6): 1.2*; IFN-γ, ratio relative to vehicle control (Veh column) ([2]; donor 6, no MRS): 1.2 fold; IL-2, ratio relative to vehicle control (Veh column) ([2]; donor 6, no MRS): 1.3* fold; TNF, ratio relative to vehicle control (Veh column) ([2]; donor 6, no MRS): 1.2* fold; IFN-γ, ratio relative to vehicle control (MRS) ([2]; donor 6): 1.5* fold; IL-2, ratio relative to vehicle control (MRS column) ([2]; donor 6): 1.3* fold; TNF, ratio relative to vehicle control (MRS column) ([2]; donor 6): 1.4* fold
